The numbers were not newly measured in patent US9993454B2, “Solid nanoparticle formulation of water insoluble pharmaceutical substances with reduced Ostwald ripening” (Luminus Biosciences, Inc., priority 2006, dated 2018), which cites them from elsewhere.

For this series the following is noted: most test systems.

As to `C/C(=C\c1csc(C)n1)[C@@H]1C[C@@H]2O[C@]2(C)CCC[C@H](C)[C@H](O)[C@@H](C)C(=O)C(C)(C)[C@@H](O)CC(=O)O1` [epothilone B], the “effectiveness relative to epothilone A” value is on record as “approximately ten-time more effective”.
